In paper PMC8215677 (Frontiers in Pharmacology, 2021):
Where a name gives a salt, the structure may show the parent alone. Read-outs that look alike come from different tables or passages of the source. Marks after values point to notes of the source that are not given here.

Columns and labels:
[1] = Solubility of berberine hydrochloride in the NADES, its water dilutions and malic acid solutions; assay type: physicochemical
Procedure: BBR was dissolved in pure water as a control. The solutions were ultrasonically treated for 1 h, and after full vortexing, the solutions were placed at room temperature for 1 h. Next, the solutions were centrifuged at 20,000 g for 10 min at 20°C. The obtained supernatant was filtered through a 0.22 μm membrane. The filtered solution was diluted with a certain volume of methanol, followed by injection into the LC-MS system for the quantitative analysis of BBR (Quantification of several Coptidis Rhizomaalkaloids).
The concentrations of the primary metabolites were equal to their concentrations in the NADES, i.e., 490.5 mg/ml, 280.6 mg/ml, 517.7 mg/ml, and 19.0 mg/ml, respectively.

[2] = Transportation of BBR across MDCK-MDR1 cell monolayer; assay type: in vitro ADME, canine; settings: dog, MDCK-MDR1
Procedure: (§1) MDCK-MDR1 cells were seeded on a Merck Transwell polycarbonate membrane (NJ, United States) at a density of 2 × 10^5 cells/mL. The cells were cultured until the tight junctions were formed (transepithelial electrical resistance value >500 Ω cm2). Before the experiment, the media on both sides of the chamber were replaced with a warmed HBSS solution. The cells were then incubated for 20 min at 37°C.
(§2) The unit of P app is cm/sec.

MDCK-MDR1 cell monolayer = test: as above; assay type: in vitro ADME, canine; settings: for P app (AP-BL) / P app (BL-AP) / ERs (efflux rate): BBR 10 μg/ml
Procedure: as §1, §2

[3] = ref Liu et al., cited from earlier work
[4] = Pharmacokinetics of oral BBR in mice (portal vein and liver); assay type: in vivo, mice; settings: for AUC0-∞ / AUC0–12 h / Cmax / MRT / Tmax / half-life / AUC(0-inf) / AUC(0-t): mice; for AUC(0-t): read-out: AUC0–12 h
Procedure: The dosages of malic acid were, respectively, equal to the dosages of malic acid in the 1 and 10% water dilutions of the NADES. […] Six mice in each group were anesthetized using diethyl ether at 0.25, 0.5, 1, 2, 3, 4, 6, 8, or 12 h after administration. Blood samples were then collected from the portal vein into heparin-containing tubes. The plasma samples were obtained by centrifugation of the blood samples at 1,000 g for 10 min at 4°C. The livers of the mice were collected and homogenized in 10 × volume of water. At the end of the experiment, the mice were euthanized by cervical dislocation.
A non-compartmental analysis using WinNonlin® software (Pharsight, CA, United States) was performed to obtain the pharmacokinetic parameters of berberine in mice. It should be noted that the pharmacokinetic parameters were calculated based on the average drug concentration at each time point because the mice were not continuously sampled.

[5] = test system: intestinal paracellular tight junctions (mouse gut sac); test: Transportation of FD4 across mouse gut sacs (tight junction integrity); assay type: in vitro ADME
Procedure: Fluorescein isothiocyanate-labeled dextran (FD4) with a molecular weight of 4,400 g/moL, is usually used to test the integrity of intestinal paracellular tight junctions ([Ma et al., 2012]). The influence of various NADES dilutions (1, 3, and 10%) on the in vitro transportation of FD4 (3 mg/ml) across the mouse gut sac was determined. The concentrations of FD4 were determined using a fluorescence microplate reader (BioTek Instruments, Winooski, VT, United States), with excitation and emission at 485 and 528 nm, respectively, ([Ma et al., 2012]). In addition, the effects of NADES dilutions pretreatment on the transportation of FD4 across the mouse gut sacs were also determined. Several mice were orally administered with 10% NADES aqueous solution. The intestines were collected after 4 h, completely washed with blank Krebs-Ringer buffer, and subsequently used for the transportation study.

MDCK-MDR1 cells = test: Cytotoxicity in MDCK-MDR1 cells (CCK-8); settings: 4 and 24 h; for Cytotoxicity: p > 0.05
Procedure: The cells were seeded into 96 well plate at the density of 3 × 10^4 cells per well. After 24 h incubation in the incubator, the culture medium was carefully sucked out, and then 200 μL DMEM medium containing 0.1, 0.3, 1 or 3% NADES was added. The control well was added with the same volume of DMEM medium. After incubation for 4 h or 24 h, 10% CCK-8 solution was added. After incubation for another 2 h, the absorbance at 450 nm was measured by using a microplate reader. The cytotoxicity of the NADES dilutions was evaluated by comparing the absorbance of the treatment groups to that of the control group.
The above method was also used to evaluate the cytotoxicity of different concentrations of malic acid, i.e., 4.90, 1.47 or 0.49 mg/ml, which were, respectively, equal to the concentrations of malic acid in the 1, 0.3 or 0.1% dilutions of the NADES.

ICR mice = test: Acute toxicity in mice; assay type: in vivo; settings: malic acid 9,800, 2,940 or 980 mg/kg oral
Procedure: Sixty ICR mice were randomly divided into three groups according to gender and body weight, with 20 mice in each group. After fasting for 12 h, the mice were orally administered with 0.2 ml/10 g body weight the NADES (the four-component NADES prepared with 350 μL water, the same below) or its 30 and 10% water dilutions, respectively. The symptoms of the mice were then observed, and the death time and the number of dead mice within 3 days were recorded.
The above method was also used to evaluate the acute toxicity of malic acid at different dosages, i.e., 9,800, 2,940, or 980 mg/kg, which were, respectively, equal to the dosages of malic acid in the NADES and its 30%, and10% water dilutions.

mouse gut sacs = test: Transportation of BBR in mouse gut sacs; assay type: in vitro ADME; settings: BBR 200 μg/ml
Procedure: After incubation, aliquots of buffer (100 μL) were, respectively, taken from the serosal side or mucosal side every 15–60 min and replaced with an equal volume of blank Krebs-Ringer buffer. The LC-MS system (Quantification of several Coptidis Rhizomaalkaloids) was used for the quantitative analysis of BBR.

[6] = livers, oral BBR 200 mg/kg dissolved in water (Control)
[7] = livers, oral BBR 200 mg/kg in 1% NADES dilution
[8] = livers, oral BBR 200 mg/kg in 10% NADES dilution
[9] = livers, oral BBR 200 mg/kg in malic acid solution 98 mg/kg
[10] = livers, oral BBR 200 mg/kg in malic acid solution 980 mg/kg
[11] = mouse, liver, po, 200 mg/kg, livers, oral BBR 200 mg/kg dissolved in water (Control)
[12] = mouse, liver, po, 200 mg/kg, livers, oral BBR 200 mg/kg in 1% NADES dilution
[13] = mouse, liver, po, 200 mg/kg, livers, oral BBR 200 mg/kg in 10% NADES dilution
[14] = mouse, liver, po, 200 mg/kg, livers, oral BBR 200 mg/kg in malic acid solution 98 mg/kg
[15] = mouse, liver, po, 200 mg/kg, livers, oral BBR 200 mg/kg in malic acid solution 980 mg/kg
[16] = mouse, portal vein plasma, po, 200 mg/kg, portal vein, oral BBR 200 mg/kg dissolved in water (Control)
[17] = mouse, portal vein plasma, po, 200 mg/kg, portal vein, oral BBR 200 mg/kg in 1% NADES dilution
[18] = mouse, portal vein plasma, po, 200 mg/kg, portal vein, oral BBR 200 mg/kg in 10% NADES dilution
[19] = mouse, portal vein plasma, po, 200 mg/kg, portal vein, oral BBR 200 mg/kg in malic acid solution 98 mg/kg
[20] = mouse, portal vein plasma, po, 200 mg/kg, portal vein, oral BBR 200 mg/kg in malic acid solution 980 mg/kg

For COc1ccc2cc3[n+](cc2c1OC)CCc1cc2c(cc1-3)OCO2 [BBR, Berberine hydrochloride], the solubility ([1]; NADES (undiluted), in the NADES (100%), room temperature (20°C)) was at least 20 mg/mL, the “Solubility of berberine hydrochloride” value ([1]; as the pH of the malic acid solution was increased by addition of NaOH, p < 0.01) was “increased” and the “Solubility of BBR compared with water” value ([1]; in 10% water dilution of NADES, p < 0.01) was “higher”. For the same molecule, the “Solubility of BBR compared with water” value ([1]; in 30% water dilution of NADES, p < 0.01) was “higher”, the Papp A→B at 10 μg/ml [2] was 0.41 ± 0.06 ×10⁻⁶ cm/s and the Papp B→A at 10 μg/ml [2] was 13.3 ± 0.4 ×10⁻⁶ cm/s. The “P app (AP-BL)” value (MDCK-MDR1 cell monolayer; with 0.3% NADES) was 0.88 ± 0.13 ×10^−6 cm/s, the “P app (BL-AP)” value (MDCK-MDR1 cell monolayer; with 0.3% NADES) was 13.1 ± 1.9 ×10^−6 cm/s and the “ERs (efflux rate)” value (MDCK-MDR1 cell monolayer; with 0.3% NADES, p < 0.05 vs Control) was 14.9*. The “P app (AP-BL)” value (MDCK-MDR1 cell monolayer; with 1% NADES) was 20.1 ± 8.7 ×10^−6 cm/s, the “P app (BL-AP)” value (MDCK-MDR1 cell monolayer; with 1% NADES) was 21.7 ± 1.4 ×10^−6 cm/s and the “ERs (efflux rate)” value (MDCK-MDR1 cell monolayer; with 1% NADES, p < 0.01 vs Control) was 1.1**. For the same molecule, the “P app from AP to BL” value (MDCK-MDR1 cell monolayer; BBR alone) was “lower than 10^−6 cm/s”, the “Fraction of oral BBR directly removed with feces” value [3]; 2010 was “about 56%” and the “Fraction of oral BBR eliminated by intestinal efflux transporters and drug metabolizing enzymes” value [3]; 2010 was “about 43.5%”. The Oral bioavailability [3]; 2010 was 0.36%, the “Fraction of BBR directly discharged from the body after oral administration” value [3]; 2016 was “about 56%” and the “Fraction of oral BBR eliminated during intestinal absorption” value [3]; 2016 was 43.5%. For the same molecule, the “AUC0-∞” value [4, 6] was 68.4 μg·h/g liver, the “AUC0–12 h” value [4, 6] was 66.3 μg·h/g liver and the Cmax [4, 6] was 16.7 μg/g liver. For the same molecule, the “AUC0-∞” value [4, 7] was 80.9 μg·h/g liver, the “AUC0–12 h” value [4, 7] was 74.5 μg·h/g liver and the Cmax [4, 7] was 29.3 μg/g liver. The “AUC0-∞” value [4, 8] was 112.5 μg·h/g liver, the “AUC0–12 h” value [4, 8] was 109.4 μg·h/g liver and the Cmax [4, 8] was 34.8 μg/g liver. The “AUC0-∞” value [4, 9] was 73.8 μg·h/g liver, the “AUC0–12 h” value [4, 9] was 72.3 μg·h/g liver and the Cmax [4, 9] was 38.0 μg/g liver. For the same molecule, the “AUC0-∞” value [4, 10] was 88.3 μg·h/g liver, the “AUC0–12 h” value [4, 10] was 85.9 μg·h/g liver and the Cmax [4, 10] was 30.0 μg/g liver. For the same molecule, the “Toxic reaction after oral administration” value ([4]; mouse, in vivo, po) was “no toxic reaction”, the MRT [4, 11] was 3.7 h and the Tmax [4, 11] was 2 h. The half-life [4, 11] was 2.2 h, the MRT [4, 12] was 3.2 h and the Tmax [4, 12] was 2 h. The MRT [4, 13] was 3 h, the Tmax [4, 13] was 1 h and the half-life [4, 13] was 2.2 h. The MRT [4, 14] was 3 h, the Tmax [4, 14] was 2 h and the half-life [4, 14] was 2.3 h. It also gave an MRT [4, 15] of 2.5 h, a Tmax [4, 15] of 1 h and a half-life [4, 15] of 1.5 h. For the same molecule, the AUC(0-inf) [4, 16] was 1130 ng·h/mL, the MRT [4, 16] was 3.1 h and the Tmax [4, 16] was 2 h. It also gave a half-life [4, 16] of 1.7 h, an AUC(0-t) [4, 16] of 1120 ng·h/mL and a Cmax ([4]; mouse, portal vein plasma, po, 200 mg/kg, portal vein, oral BBR 200 mg/kg dissolved in water (Control), read-out: Cmax) of 321 ng/mL. For the same molecule, the AUC(0-inf) [4, 17] was 2740 ng·h/mL, the MRT [4, 17] was 2.9 h and the Tmax [4, 17] was 2 h. It also gave a half-life [4, 17] of 1.3 h, an AUC(0-t) [4, 17] of 2730 ng·h/mL and a Cmax ([4]; mouse, portal vein plasma, po, 200 mg/kg, portal vein, oral BBR 200 mg/kg in 1% NADES dilution, read-out: Cmax) of 975 ng/mL. The AUC(0-inf) [4, 18] was 3610 ng·h/mL, the MRT [4, 18] was 2.4 h and the Tmax [4, 18] was 1 h. The half-life [4, 18] was 1.7 h, the AUC(0-t) [4, 18] was 3590 ng·h/mL and the Cmax ([4]; mouse, portal vein plasma, po, 200 mg/kg, portal vein, oral BBR 200 mg/kg in 10% NADES dilution, read-out: Cmax) was 1470 ng/mL. The AUC(0-inf) [4, 19] was 2300 ng·h/mL, the MRT [4, 19] was 2.7 h and the Tmax [4, 19] was 2 h. For the same molecule, the half-life [4, 19] was 2.7 h, the AUC(0-t) [4, 19] was 2230 ng·h/mL and the Cmax ([4]; mouse, portal vein plasma, po, 200 mg/kg, portal vein, oral BBR 200 mg/kg in malic acid solution 98 mg/kg, read-out: Cmax) was 972 ng/mL. For the same molecule, the AUC(0-inf) [4, 20] was 3070 ng·h/mL, the MRT [4, 20] was 2.1 h and the Tmax [4, 20] was 1 h. It also gave a half-life [4, 20] of 1.4 h, an AUC(0-t) [4, 20] of 3060 ng·h/mL and a Cmax ([4]; mouse, portal vein plasma, po, 200 mg/kg, portal vein, oral BBR 200 mg/kg in malic acid solution 980 mg/kg, read-out: Cmax) of 1250 ng/mL.
With O=C(O)CC(O)C(=O)O (centres unmarked) [malic acid] the “Effect on absorption of FD4 across mouse gut sacs” value ([5]; malic acid 4.9, 14.7, 49.0 mg/ml present, concentration dependent, p < 0.01) was “increased the absorption”, the “Reversibility of the effect on FD4 absorption” value ([5]; malic acid pretreatment for 4 h) was “reversible” and the Cytotoxicity (MDCK-MDR1 cells; 0.49 mg/ml malic acid) was “no significant cytotoxicity”. The Cytotoxicity (MDCK-MDR1 cells; 1.47 mg/ml malic acid) was “no significant cytotoxicity”, the Cell viability (MDCK-MDR1 cells; 4.9 mg/ml malic acid, p < 0.01) was “completely lost” and the Acute toxicity (ICR mice) was “significant acute toxicity”. For the same molecule, the “Effect on efflux of BBR in gut sacs” value (mouse gut sacs; malic acid 14.7 mg/ml or more) was “promoted the efflux” and the “Effect on absorption of BBR in gut sacs” value (mouse gut sacs; malic acid 4.9–49.0 mg/ml, concentration-dependent) was “promoted the absorption”.
